The target in assay [1] is T1, [^3 H]-Spiroperidol Binding (Homo sapiens, UniProt P14416).
T1 construct: receptor assay described by D. Grigoriadis and P. Seeman, Journal of Neurochemistry, Volume 44, pages 1925-1935 (1985); from tissue
The assay is described as follows: Inhibition of [^3 H]-spiroperidol binding in a receptor assay. From the text:
(§1) The above test methods are incorporated herein by reference.

The subject of assay [2] is Locomotor Activity in Mice. As to the kind of experiment: Inhibition of locomotor activity in mice. It is filed as in vivo. As to conditions: for ED50: Mus musculus, ip; for Inhibition of Locomotor Activity in Mice ED50: IP.
Text: as §1

Assay [3] concerns Brain Striatal Dopamine Synthesis. As to the kind of experiment: Effects on brain striatal dopamine synthesis in rats. To be noted: for inhibition in vivo at 10 mg/kg: Rattus norvegicus; for Effects on Brain Striatal Dopamine Synthesis in Rats, % inhibition: 10 mg/kg. It is filed as in vivo.
Text: as §1

In assay [4] the target is sigma opiate binding site. As to the kind of experiment: Inhibition of [^3 H] DTG (ditoluoyl guanidine; a sigma ligand) binding. Here is the method:
The compounds of Formula I are valuable dopaminergic agents. […] Thus, the compounds of Formula I were tested for their ability to inhibit locomotor activity in mice according to the assay described by J. R. McLean, et al, Pharmacology, Biochemistry and Behavior, Volume 8, pages 97-99 (1978); for their ability to inhibit [[…] ]-spiroperidol binding in a receptor assay described by D. Grigoriadis and P. Seeman, Journal of Neurochemistry, Volume 44, pages 1925-1935 (1985); and for their ability to inhibit dopamine synthesis in rats according to the protocol described by J. R. Walters and R. H. Roth, Naunyn-Schmiedeberg's Archives of Pharmacology, Volume 296, pages 5-14 (1976). The above test methods are incorporated herein by reference. The data in the table show the dopaminergic activity of representative compounds of Formula I. Additionally, the compounds of Formula I are ligands for the sigma opiate binding site. The data in the table show the inhibition of [^3 H] DTG (ditoluoyl guanidine; a sigma ligand) binding by representative compounds of Formula I, according to the method of E. Weber, et al, Proceedings of the National Academy of Sciences, USA, Volume 83, pages 8784-8788 (1986).

[5] abbreviates: read-out: Inhibition of [^3 H]-Spiroperidol Binding IC50.
Where [6] appears, read: Inhibition of [^3 H]-Spiroperidol Binding IC50.

Where two headings read alike, the source gives them in different places.

T1 sequence (P14416 whole entry): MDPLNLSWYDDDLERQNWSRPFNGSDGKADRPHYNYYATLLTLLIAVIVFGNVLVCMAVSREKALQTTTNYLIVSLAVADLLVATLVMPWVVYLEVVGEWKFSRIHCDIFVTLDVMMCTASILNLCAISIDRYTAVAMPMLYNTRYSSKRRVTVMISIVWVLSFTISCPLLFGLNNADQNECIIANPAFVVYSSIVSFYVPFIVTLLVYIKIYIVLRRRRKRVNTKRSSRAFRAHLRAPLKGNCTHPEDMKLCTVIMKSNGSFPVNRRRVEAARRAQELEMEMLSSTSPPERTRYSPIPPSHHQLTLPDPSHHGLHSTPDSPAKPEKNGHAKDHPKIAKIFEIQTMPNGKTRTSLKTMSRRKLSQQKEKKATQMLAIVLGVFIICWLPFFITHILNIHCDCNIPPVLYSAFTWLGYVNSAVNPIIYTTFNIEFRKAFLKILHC

For the compound `OC1(c2cccs2)CCC(CCN2CCN(c3ccccn3)CC2)CC1` (stereo not drawn) [Example 3, cis-4-[2-[4-(2-Pyridinyl)-1-piperazinyl]ethyl]-1-(2-thienyl)cyclohexanol], the values for the IC50 in assay [1] (setting [5]) and in assay [4] were 262 nM and 6 nM, respectively. The compound also yielded an ED50 in assay [2] of 1.3 mg/kg. For the same compound, the inhibition in vivo at 10 mg/kg in assay [3] (ip) was found to be 67%.

In the case of `OC1(c2cccs2)CCC(CCN2CCN(c3ccccn3)CC2)CC1` (stereo not drawn) [Example 4, trans-4-[2-[4-(2-Pyridinyl)-1-piperazinyl]ethyl]-1-(2-thienyl)cyclohexanol], the IC50 is 341 nM in assay [1] (setting [5]) and 5 nM in assay [4]. Besides, the “Inhibition of Locomotor Activity in Mice ED50” value in assay [2] was 1.1 mg/kg. Also, the “Effects on Brain Striatal Dopamine Synthesis in Rats, % inhibition” value in assay [3] (IP) came to 47%.

`OC1(c2ccc(F)cc2)CCC(CCN2CCN(c3ccccn3)CC2)CC1` (stereo not shown) [Example 7, 1-(4-Fluorophenyl)-4-[2-[4-(2-pyridinyl)-1-piperazinyl]ethyl]cyclohexanol]: in assay [1] (at 10^-5 M), the inhibition at 10 µM came out at 94%. In assay [2], this compound returned an ED50 of 0.64 mg/kg. Also, in assay [3] (ip), the inhibition in vivo at 10 mg/kg was 48%. The IC50 in assay [4] came out at 16.5 nM.

With `OC1(c2ccccn2)CCC(CCN2CC=C(c3ccccc3)CC2)CC1` (stereo not drawn) [Example 11, cis-1-(2-Pyridinyl)-4-[2-[3,6-dihydro-4-phenyl-1(2H)-pyridinyl]ethyl]cyclohexanol], the IC50 amounted to 156 nM in assay [1] (setting [5]) and 3.5 nM in assay [4]. Further, the ED50 in assay [2] turned out to be 0.64 mg/kg.

`OC1(c2cccnc2)CCC(CCN2CC=C(c3ccccc3)CC2)CC1` (stereo not drawn) [Example 12, cis-1-(3-Pyridinyl)-4-[2-[3,6-dihydro-4-phenyl-1(2H)-pyridinyl]ethyl]cyclohexanol]: the IC50 in assay [1] (setting [5]) is 116 nM. The compound also gave an ED50 in assay [2] of 0.25 mg/kg. The inhibition in vivo at 10 mg/kg in assay [3] (IP) came to 79%.

As to `OC1(c2ccsc2)CCC(CCN2CCN(c3ccccn3)CC2)CC1` (stereo not shown) [Example 14, 4-[2-[4-(2-Pyridinyl)-1-piperazinyl]ethyl]-1-(3-thienyl)cyclohexanol], the IC50 in assay [1] (setting [5]) was 312 nM; in assay [4] it was 4.5 nM. In assay [2], this compound gave an ED50 of 0.48 mg/kg. The compound further had an inhibition in vivo at 10 mg/kg in assay [3] (ip) of 37%.

`COc1ccc(C2(O)CCC(CCN3CCN(c4ccccn4)CC3)CC2)cc1` (stereo not drawn) [Example 15, trans-1-(4-Methoxyphenyl)-4-[2-[4-(2-pyridinyl)-1-piperazinyl]ethyl]cyclohexanol]: in assay [1] (setting [5]), the IC50 turned out to be 932 nM. Further, the “Inhibition of Locomotor Activity in Mice ED50” value in assay [2] is on record as 0.3 mg/kg. For the same compound, the “Effects on Brain Striatal Dopamine Synthesis in Rats, % inhibition” value in assay [3] (IP) was found to be 52%.

Take `O=C(N[C@H]1CC[C@H](N2CCN(c3ccccn3)CC2)CC1)c1ccccc1` [Example 40, trans N-[4-[4-(2-Pyridinyl)-1-piperazinyl]cyclohexyl]benzamide]: the IC50 in assay [1] (setting [5]) came out at 2800 nM. In addition, the ED50 in assay [2] turned out to be 0.36 mg/kg. The inhibition in vivo at 10 mg/kg in assay [3] (ip) was 65%.

`CN(C(=O)c1ccccc1)[C@H]1CC[C@H](N2CCN(c3ccccn3)CC2)CC1` [Example 42, trans N-Methyl-N-[4-[4-(2-pyridinyl)-1-piperazinyl]cyclohexyl]benzamide]: in assay [1] (setting [5]), the IC50 was 4840 nM. This compound came in with an ED50 in assay [2] of 2.4 mg/kg. For the same compound, at 10 mg/kg the inhibition in vivo in assay [3] (ip) was 15%.

As to `O=C(N[C@H]1CC[C@H](N2CC=C(c3ccccc3)CC2)CC1)c1ccccc1` [Example 46, trans N-[4-(3,6-Dihydro-4-phenyl-1(2H)-pyridinyl)cyclohexyl]benzamide], in assay [1] (setting [5]), the concentration for half-maximal inhibition (IC50) was determined as 360 nM. The compound further had an ED50 in assay [2] of 0.16 mg/kg. In assay [3] (IP), the inhibition in vivo at 10 mg/kg worked out at 95%.

For the compound `O=C(N[C@H]1CC[C@H](N2CC=C(c3ccccc3)CC2)CC1)c1cccs1` [Example 47, trans N-[4-(3,6-Dihydro-4-phenyl-1(2H)-pyridinyl)cyclohexyl]-2-thiophenecarboxamide], the IC50 in assay [1] (setting [5]) worked out at 300 nM. This compound yielded an ED50 in assay [2] of 0.23 mg/kg. This compound also yielded an inhibition in vivo at 10 mg/kg in assay [3] (IP) of 74%.

In assay [1] (setting [6]), `O=C(N[C@H]1CC[C@H](N2CC=C(c3ccccc3)CC2)CC1)c1ccsc1` [Example 48, trans N-[4-(3,6-Dihydro-4-phenyl-1(2H)-pyridinyl)cyclohexyl]-3-thiophenecarboxamide] showed an IC50 of 90 nM. In assay [2], this compound yielded an ED50 of 0.27 mg/kg. The inhibition in vivo at 10 mg/kg in assay [3] (IP) is 88%.

As for `O=C(N[C@H]1CC[C@H](N2CC=C(c3ccccc3)CC2)CC1)c1cccnc1` [Example 49, trans N-[4-(3,6-Dihydro-4-phenyl-1(2H)-pyridinyl)cyclohexyl]-3-pyridinecarboxamide], the IC50 in assay [1] (setting [5]) was 600 nM. The ED50 in assay [2] came to 2.4 mg/kg. Besides, in assay [3] (IP), the inhibition in vivo at 10 mg/kg was 72%.

Take `O=C(N[C@H]1CC[C@H](CCN2CCN(c3ccccn3)CC2)CC1)c1ccccc1` [Example 52, trans N-[4-[2-[4-(2-Pyridinyl)-1-piperazinyl]ethyl]cyclohexyl]benzamide]: in assay [1] (setting [5]), the IC50 is 440 nM. For the same compound, the ED50 in assay [2] was determined as 0.16 mg/kg. This compound gave an inhibition in vivo at 10 mg/kg in assay [3] (ip) of 87%.

Consider `O=C(N[C@H]1CC[C@@H](CCN2CCN(c3ccccn3)CC2)CC1)c1ccccc1` [Example 53, cis N-[4-[2-[4-(2-Pyridinyl)-1-piperazinyl]ethyl]cyclohexyl]benzamide], for which, in assay [1] (setting [5]), the IC50 worked out at 3280 nM. In assay [2], this compound returned an ED50 of 4.5 mg/kg. In assay [3] (ip), testing at 10 mg/kg gave an inhibition in vivo of 36%.

Take `Cc1ccc(C(=O)N[C@H]2CC[C@H](CCN3CCN(c4ccccn4)CC3)CC2)cc1` [Example 54, trans 4-Methyl-N-[4-[2-[4-(2-pyridinyl)-1-piperazinyl]ethyl]cyclohexyl]benzamide]: in assay [1] (setting [5]), the 50% inhibitory concentration (IC50) came out at 290 nM. The same compound showed an ED50 in assay [2] of 0.11 mg/kg. Besides, in assay [3] (ip), at 10 mg/kg the inhibition in vivo was 0%.

With `O=C(N[C@H]1CC[C@H](CCN2CC=C(c3ccccc3)CC2)CC1)c1cccs1` [Example 71, trans N-[4-[2-(3,6-Dihydro-4-phenyl-1(2H)-pyridinyl)ethyl]cyclohexyl]-2-thiophenecarboxamide], the IC50 in assay [1] (setting [5]) turned out to be 210 nM. This compound also had an ED50 in assay [2] of 0.21 mg/kg. This compound also showed an inhibition in vivo at 10 mg/kg in assay [3] (IP) of 79%.

Take `O=C(N[C@H]1CC[C@H](CCN2CC=C(c3ccccc3)CC2)CC1)c1ccccc1` [Example 72, trans N-[4-[2-(3,6-Dihydro-4-phenyl-1(2H)-pyridinyl)ethyl]cyclohexyl]benzamide]: the IC50 in assay [1] (setting [6]) was 100 nM. Moreover, the ED50 in assay [2] was 0.27 mg/kg. For the same compound, in assay [3] (IP), at 10 mg/kg the inhibition in vivo was 74%.

By IC50 is commonly meant the concentration that gives 50% inhibition. The term ED50 denotes the midpoint of the dose-response relation. For orientation: inhibition in vivo means how much of the control response was suppressed. A high value points to a response far below the control. One may read the inhibition as the relative decrease from the control value, in per cent. A higher inhibition goes with strong suppression.
